US20240315990A1, “Adelmidrol For Use In Diseases Characterized By Insufficient Agonism Of PPAR-GAMMA Receptor” (Epitech Group S.P.A., priority 2016, published 2024)

Assays:
[1] = test system: DNBS-induced bowel tissue lesion; experiment: DNBS-induced bowel tissue lesion, microscope lesion score; format: in vivo; details: rat, DNBS 15 mg intrarectal, Adelmidrol 10 mg/kg per os in 2% CMC
Experimental: Rats were anesthetized with ethyl ether in order to ensure the animals' waking up after 4-5 minutes. 60 mg/mL DNBS was dissolved in 50% ethanol in water. An amount of 0.25 ml of alcoholic solution (containing 15 mg of DNBS) was instilled to each animal, using an 8 cm long intrarectal catheter made of silicone so as to reach […]. During the experiment, the possible ejection of the solution from the rectum when the animal awoke was carefully monitored, taking it into account in the final assessment. The assessment of the bowel lesion was performed by taking, upon sacrifice of the animal, the entire bowel which was adequately washed with physiological solution and immediately examined under a microscope. Adelmidrol was administered per os through a gastric cannula in an amount of 10 mg/kg dissolved in aqueous solution containing 2% CMC (carboxymethylcellulose). The bowel tissue lesion was quantized through microscope inspection by two different observers. […]

[2] = test system: bleomycin-induced lung edema; experiment: bleomycin-induced lung lesion, lung edema (wet vs dry lung weight); format: in vivo, CD1 male mice
Experimental: CD1 male mice ((CD1(ICR) mice (25-35 g; Harlan Nossan, Italy) were accommodated in a controlled environment and fed with standard food and water. Using a catheter (tracheotomy tube), the mice received a single intratracheal instillation of physiological solution (0.9%) or saline containing bleomycin sulfate (0.1 U/mouse) in a final volume of 100 μL, and the liquid was immediately followed by 300 μL of air in order to also ensure the distribution thereof in the distal airways. The weight of the wet lungs was calculated after 28 days upon injecting bleomycin by means of careful excision of the lung from the adjacent tissues. The lungs were exposed for 48 hours at 180° C. and the dry weight was then assessed. The lung water content was calculated as wet weight-to-dry weight ratio. In order to assess the degree of the existing lung edema, at the end of the experiment, even in untreated animals, the comparison of the wet lung weight to the lung weight after water removal was carried out. The results are shown in the chart in FIG. 6.

TNF-α and IL1β = experiment: bleomycin-induced lung lesion, dosage of inflammatory cytokines TNF-α and IL1β; format: in vivo, CD1 male mice; details: BLM-treated mice
Experimental: (§1) CD1 male mice ((CD1(ICR) mice (25-35 g; Harlan Nossan, Italy) were accommodated in a controlled environment and fed with standard food and water.
(§2) Using a catheter (tracheotomy tube), the mice received a single intratracheal instillation of physiological solution (0.9%) or saline containing bleomycin sulfate (0.1 U/mouse) in a final volume of 100 μL, and the liquid was immediately followed by 300 μL of air in order to also ensure the distribution thereof in the distal airways.
TNF-α and IL1β are also regarded as the biochemical markers of inflammation and fibrosis of the lung. The results obtained are shown in the chart in FIG. 9.

myeloperoxidase (MPO) = myeloperoxidase (MPO) activity in the bowel of DNBS-treated animals; format: in vivo, rat; details: Adelmidrol 10 mg/kg orally
Experimental: The determination of the activity of the enzyme myeloperoxidase (MPO), which is considered an important marker of neutrophil activity in the bowel, fully confirms the effect of Adelmidrol on the colonic mucosa. The test was carried out by the method described in the literature (Morampudi V. et al. Journal of Visualized Experiments—February 2014; 84:1-8) on DBNS-treated animals, not treated animals, or animals orally treated with Adelmidrol (10 mg/kg).
The results are shown in the chart in FIG. 4.

[3] = bleomycin-induced lung lesion, weight change in the animals; format: in vivo, CD1 male mice; details: mice, bleomycin (BLM) + Adelmidrol vs BLM + inert vehicle
Experimental: as §1, §2
All procedures related to the treatment of animals were performed in accordance with the guidelines approved by the Institutional Committee (IACUC) following the guidelines of the Association for Assessment and Accreditation of Laboratory Animal Care (AAALAC). While being monitored, the animals were inspected for any adverse effects produced by the lung lesion. An assessment of the water and food consumption and consequently of the body weight (analyzed daily by weighing the animals) was carried out (Mullane K M et al, 1985, supra).
The animals belonging to the group treated with bleomycin (BLM)+inert vehicle and those belonging to that treated with BLM and Adelmidrol in an inert vehicle were weighed, and the weight change was calculated on the 3rd and 8th day after the start of the treatment with BLM. The results are shown in the chart in FIG. 5.

[4] = test system: inflammatory cells in BAL fluid; experiment: bleomycin-induced lung lesion, inflammatory cells in bronchoalveolar lavage (BAL) fluid; format: in vivo, CD1 male mice; details: BLM-treated mice, BAL seven days after induction
Experimental: as §1, §2
Seven days after the induction of fibrosis, the mice were sacrificed and their trachea was immediately cannulated with an intravenous catheter made of polyethylene (Neo Delta Ven. 2, Delta Med, Viadana, Italy) equipped with a 1 mL 24-gauge syringe. The lungs were washed once with 0.5 mL of D-PBS (GIBCO, UK). In 95% of mice, the recovery volume exceeds 0.4 mL. The BAL fluid was centrifuged at 800 rpm, the surfactant was removed and the cell pellet was resuspended in PBS. The number of cells in the BAL fluid was obtained by counting on a hemocytometer in the presence of Trypan Blue. Cytospins were prepared from the cells resuspended in PBS. The slides were dried in dry air and then colored with Diff-Quick Set Stain (Diff-Quick, Baxter Scientific, Miami, FL). Using the optical microscopy, a total of 400 cells was examined from each sample in randomly chosen fields. […]

## O=C(CCCCCCCC(=O)NCCO)NCCO [Adelmidrol, azelaic acid diethanolamide]
[1]
  bowel tissue lesion, score 0 to 8 by microscope inspection (FIG. 2, FIG. 3): important, significant protection of the colonic mucosa
[2]; mice not treated with BLM
  difference in lung weight between fresh organ and dried organ (FIG. 6): does not change the difference in lung weight between fresh organ and dried organ
[2]; mice treated with BLM and Adelmidrol vs BLM and inert vehicle
  difference in lung weight between fresh organ and dried organ (FIG. 6): considerably lower
TNF-α and IL1β
  IL1β level in the lung (FIG. 9): considerably reduces the levels of both inflammatory cytokines
  TNF-α level in the lung (FIG. 9): considerably reduces the levels of both inflammatory cytokines
Myeloperoxidase (MPO)
  MPO activity in the bowel, marker of neutrophil activity (FIG. 4): anti-inflammatory effect on the bowel tissue
[3]
  body weight change on the 3rd and 8th day after start of BLM (FIG. 5): significant body weight gain
[4]
  number of macrophages, neutrophils and lymphocytes in BAL fluid (FIGS. 7 and 8): reduces the number of macrophages, neutrophils and lymphocytes in a very significant manner
